Test results from patent US20240317774A1, “Pharmaceutical Compound” (GLAXOSMITHKLINE INTELLECTUAL PROPERTY DEVELOPMENT LIMITED, priority 2021, published 2024).
Where two headings read alike, the source gives them in different places.

Legend:
P. falciparum FCR3 = experiment: Panel of P. falciparum strains: FCR3; type: cell-based; conditions: strain FCR3
P. falciparum Tm90C2B = type: cell-based; conditions: strain Tm90C2B
P. falciparum Dd2 = experiment: Panel of P. falciparum strains: Dd2; type: cell-based; conditions: strain Dd2
P. falciparum 3D7A = experiment: Panel of P. falciparum strains: 3D7A; type: cell-based; conditions: Plasmodium falciparum, read-out: IC50 (mean μM ± SD) 3D7A
P. falciparum Tm90C2A = experiment: Panel of P. falciparum strains: Tm90C2A; type: cell-based; conditions: strain Tm90C2A
[1] = test system: P. falciparum infected erythrocytes; experiment: Blood stages activity, [3H]hypoxanthine incorporation method; type: cell-based; conditions: Plasmodium falciparum, Erythrocyte; whole cell activity; read-out: WC IC50
Protocol: The sensitivity of P. falciparum infected erythrocytes to the compound was determined using the [3H]hypoxanthine incorporation method with an inoculum of 0.5% parasitemia (ring stage) and 2% hematocrit. The parasites were grown in RPMI 1640, 25 mM HEPES and supplemented with 5% Albumax. Plates are incubated at 37° C., 5% CO2, 5% O2, 90% N2. After 24 h of incubation, [3H]hypoxanthine is added and plates are incubated for another 24 h. After that period, plates are harvested on a glass fiber filter using a TOMTEC Cell harvester 96. Filters are dried and melt on scintillator sheets and the bound radioactivity is quantified by use of a Wallac Microbeta Trilux (Model 1450 LS-Perkin Elmer). IC50s are determined using Grafit 7 program (Grafit program; Erithacus Software, Horley, Surrey, United Kingdom).

[2] = molecular target: T1, cytochrome bc1 of mitochondria isolated from human cells (HEK293) (Homo sapiens, UniProt P00156); experiment: Enzymatic bc1 inhibition, cytochrome c reductase activity, human mitochondria; type: biochemical; conditions: for IC50: activity in the human target, read-out: Hbc1 IC50; for Tox window selectivity index: human bc1 vs P. falciparum bc1
T1 construct: endogenous in cells; host or cells: HEK293 (isolated mitochondria)
Protocol: (§1) For cytochrome bc1 experiments, mitochondria were isolated as follows: parasitized erythrocytes were harvested by centrifugation and lysed with 0.05% (w/v) saponin in RPMI. Then parasites were washed three times with H-medium (0.07 M sucrose, 0.21 M mannitol, 1 mM EGTA, 5 mM MgCl2, 5 mM KH2PO4, and 4 mM HEPES, pH 7.4) and resuspended in the same medium in the presence of 1 mM PMSF and protease inhibitor cocktail (Roche Complete). Parasites were disrupted by N2 cavitation (4639 Cell disruption Bomb, Parr Instrument, Moline, IL, USA) at 1600 psi for 25 min at 4° C. Unbroken cells and cell debris were removed by centrifugation at 1,200×g for 10 min at 4° C. The mitochondrial fraction was pelleted at 10,000×g for 20 min at 4° C. The mitochondrial pellet was gently resuspended in 0.8 M sucrose, 1 mM EDTA, 10 mM Tris-HCl PH 7.4, and 0.1% BSA prior to separation on a 1-2 M sucrose gradient. The sample was centrifuged on a gradient at 80,000×g for 2 hr at 4° C. The mitochondria were then recovered and washed with 1 mM EDTA, 10 mM Tris-HCL pH 7.4 to remove sucrose, and resuspended in H-medium with protease inhibitor cocktail and 1 mM PMSF. Samples were stored at −80° C. until use. In the case of human mitochondria, HEK293 human cell line was used as starting material. Cells were pelleted at 400×g 10 min and disrupted by N2 cavitation. Mitochondria then were isolated using the method described above. Cytochrome c reductase activity was assayed by a modification of the method of Fry and Pudney, Biochem. Pharmacol., 43 (1992), pp. 1545-1553. Mitochondria (40 μg/ml) were diluted in reaction buffer (250 mM sucrose, 50 mM KH2PO4, 0.2 mM EDTA, 1 mM NaN3, and 2.5 mM KCN) containing 50 μM cytochrome c. Reactions were started by addition of 25 μM decylubiquinol and monitored by reduction of cytochrome c at 550 nm. To assure the linearity of the enzymatic reaction only data from the first 60 s were collected. Decylubiquinol substrate was prepared by reducing decylubiquinone (Sigma-Aldrich, St. Louis, MO, USA) in ethanol with sodium borohydride. Decylubiquinol was aliquoted and stored in acidified ethanol at −80° C. Inhibition of bc1 activity on mitochondria isolated from human parasites (P. falciparum 3D7A), rodent parasites (P. berghei ANKA) and human cells (HEK293).

[3] = molecular target: T2, cytochrome bc1 of mitochondria isolated from human parasites (P. falciparum 3D7A) (Plasmodium falciparum, UniProt Q02768); experiment: Enzymatic bc1 inhibition, cytochrome c reductase activity, P. falciparum mitochondria; type: biochemical
T2 construct: endogenous in cells; host or cells: P. falciparum 3D7A parasites from parasitized erythrocytes (isolated mitochondria)
Protocol: as §1

[4] = activity in the P. falciparum target, read-out: p.fbc1 IC50

T2 sequence (Q02768 whole entry): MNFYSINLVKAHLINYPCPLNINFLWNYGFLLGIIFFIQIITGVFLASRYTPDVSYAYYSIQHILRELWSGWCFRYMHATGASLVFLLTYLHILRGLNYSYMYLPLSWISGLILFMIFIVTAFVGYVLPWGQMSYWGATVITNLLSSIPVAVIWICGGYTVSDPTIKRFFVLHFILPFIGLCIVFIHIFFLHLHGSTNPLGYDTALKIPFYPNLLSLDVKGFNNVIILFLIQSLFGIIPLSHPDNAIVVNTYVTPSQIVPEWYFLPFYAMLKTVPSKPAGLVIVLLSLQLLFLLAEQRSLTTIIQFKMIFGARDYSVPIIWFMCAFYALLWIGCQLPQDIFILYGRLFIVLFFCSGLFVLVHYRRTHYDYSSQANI

SMILES | Pf IC50 Ratio vs Pf IC50 3D7, FCR3 (P. falciparum FCR3) | Pf IC50 Ratio vs Pf IC50 3D7, Tm90C2B (P. falciparum Tm90C2B) | Pf IC50 Ratio vs Pf IC50 3D7, Dd2 (P. falciparum Dd2) | IC50 (P. falciparum 3D7A) [µM] | Pf IC50 Ratio vs Pf IC50 3D7, Tm90C2A (P. falciparum Tm90C2A) | IC50 (P. falciparum 3D7A; strain 3D7A) [µM] | IC50 [1] [nM] | IC50 [2] [nM] | Tox window selectivity index [2] | IC50 [3] [nM] | IC50 [3, 4] [nM]
C[C@H]1[C@H](OC(=O)CCC(=O)O)O[C@@H]2O[C@@]3(C)CC[C@H]4[C@H](C)CC[C@@H]1[C@@]24OO3 [Artesunate] | 1 | 1 | 1 | 0.014 ± 0.0003 | 1 |  |  |  |  |  | 
O=C1C(O)=C([C@H]2CC[C@H](c3ccc(Cl)cc3)CC2)C(=O)c2ccccc21 [Atovaquone] | >100 | >250 | 2 |  | 1 | 0.001 ± 0.001 |  |  |  |  | 
CCN(CC)CCCC(C)Nc1ccnc2cc(Cl)ccc12 (centres unmarked) [Chloroquine] | >7 | >14 | >7 | 0.029 ± 0.006 | >7 |  |  |  |  |  | 
C[C@H]1[C@@H](O)O[C@@H]2O[C@@]3(C)CC[C@H]4[C@H](C)CC[C@@H]1[C@@]24OO3 [Dihydroartemisinine] | 1 | 1 | 1 |  | 1 | 0.004 ± 0.0001 |  |  |  |  | 
Cc1[nH]c2sc3cc(-c4ccc(C(F)(F)F)cc4F)ccc3c2c(=O)c1Cl [Example 1, 3-chloro-7-(2-fluoro-4-(trifluoromethyl)phenyl)-2-methylbenzo[4,5] thieno[2,3-b]pyridin-4(1H)-one] | 1 | 7 | 1 |  | 1 | 0.012 ± 0.002 | 1.46 | 3300 | 300-600 | 4.6 | 
Cc1[nH]c2sc3cc(-c4cc(C(F)(F)F)ccc4F)ccc3c2c(=O)c1Cl [Example 3, 3-chloro-7-(2-fluoro-5-(trifluoromethyl)phenyl)-2-methylbenzo[4,5]thieno[2,3-b]pyridin-4(1H)-one] |  |  |  |  |  |  | 31.6 | 1520 | 500 |  | 1.8
Cc1[nH]c2sc3cc(-c4ccccc4OC(F)(F)F)ccc3c2c(=O)c1Cl [Example 4, 3-chloro-2-methyl-7-(2-(trifluoromethoxy)phenyl)benzo[4,5]thieno[2,3-b]pyridin-4(1H)-one] |  |  |  |  |  |  | 0.732 | 1560 | 1625 |  | 0.96
Cc1[nH]c2sc3cc(-c4ccc(C(F)(F)F)cc4C(F)(F)F)ccc3c2c(=O)c1Cl [Example 5, 7-(2,4-bis(trifluoromethyl)phenyl)-3-chloro-2-methylbenzo[4,5]thieno[2,3-b]pyridin-4(1H)-one] |  |  |  |  |  |  | 0.433 | 2420 | 2200 | 1.1 | 
Cc1[nH]c2sc3cc(-c4ccc(CO)cc4)ccc3c2c(=O)c1Cl [Example 6, 3-chloro-7-(4-(hydroxymethyl)phenyl)-2-methylbenzo[4,5]thieno[2,3-b]pyridin-4(1H)-one] |  |  |  |  |  |  | 0.946 | 5420 |  |  | 
Cc1[nH]c2sc3cc(-c4ccc(CN(C)C5CCN(Cc6ccc(OC(F)(F)F)cc6)CC5)cc4)ccc3c2c(=O)c1Cl [Example 7, 3-chloro-2-methyl-7-(4-((methyl(1-(4-(trifluoromethoxy)benzyl)piperidin-4-yl)amino)methyl)phenyl)benzo[4,5]thieno[2,3-b]pyridin-4(1H)-one 2,2,2-trifluoroacetate] |  |  |  |  |  |  | 121 | > 10000 |  |  | 
CCCCN(CCCC)CC(O)c1cc(Cl)cc2c1-c1ccc(Cl)cc1/C2=C/c1ccc(Cl)cc1 (centres unmarked) [Lumefantrine] |  | 1 | 1 | 0.011 ± 0.004 | 0.1 |  |  |  |  |  | 
OC(c1cc(C(F)(F)F)nc2c(C(F)(F)F)cccc12)C1CCCCN1 (centres unmarked) [Mefloquine] | 1 | 1 | 1 |  | 0.3 | 0.037 ± 0.001 |  |  |  |  | 
CCc1nc(N)nc(N)c1-c1ccc(Cl)cc1 [Pyrimethamine] | 3 | >88 | >312 |  | >312 | 0.032 ± 0.001 |  |  |  |  | 
